“Also recorded” adds a separate entry of the source.

In assay [1] the test system is human platelets. The assay can be described thus: Intracellular Ca2+ mobilization in thrombin-stimulated human platelets (Fura-2). The assay is classed as cell-based. The settings on record: for thrombin-induced Ca2+ mobilisation: human platelets preincubated with peptide alone; for effect on the apelin inhibitory effect on thrombin-induced Ca2+ mobilisation: human platelets, peptide together with apelin. The protocol: FIG. 6: APJ antagonist […]) and unprocessed double mutant apelin-36 (apelin-DM) confirm the role of APJ in the inhibition of platelet function by apelin. Intracellular Ca^2+ mobilization ([Ca^2+]i) in human platelets was monitored in real-time using a fluorescence spectrophotometer. Human platelets, loaded with Fura-2-AM were preincubated 3 minutes with PBS, as control (black bar); […] (100 nM; white bar); apelin (10 nM; grey bar) or […] (100 nM) plus apelin (10 nM) (dashed bar) before stimulation by thrombin (100 mU/mL). […] Human platelets were loaded with Fura-2 by incubation with 2 μM Fura-2-AM for 45 minutes at 37° C. Cells were then collected by centrifugation at 350 g for 15 min and resuspended in HEPES-buffered saline (145 mM NaCl, 10 mM HEPES, 10 mM D-glucose, 5 mM KCl, 1 mM MgSO4, pH 7.4), and supplemented with 0.1% (w/v) BSA. Fluorescence was recorded from 2 mL aliquots of magnetically stirred cell suspensions at 37° C. using a fluorescence spectrophotometer (Varian Ltd., Madrid, Spain) with excitation wavelengths of 340 and 380 nm and emission at 505 nm. Changes in [Ca^2+]i were monitored using the Fura-2 340/380 fluorescence ratio and calibrated according to the method of Grynkiewicz et al.^19. Ca^2+ release by thrombin was estimated using the integral of the rise in [Ca^2+]i for 2.5 minutes after its addition, taking a sample every second, and was expressed in nM as previously described^20.
(Calcium flux is commonly read through the fluorescence of an indicator in the cells.)

Assay [2] has as its system human platelets. As to the kind of experiment: Thrombin-induced aggregation of washed human platelets. In kind it is cell-based. Particulars: for thrombin-induced platelet aggregation: human platelets preincubated with peptide alone; for effect on the apelin inhibitory effect on thrombin-induced aggregation: human platelets, peptide together with apelin. The protocol: FIG. 5: APJ antagonist […]) and unprocessed double mutant apelin-36 (apelin-DM) confirm the role of APJ in the inhibition of platelet function by apelin. Thrombin-induced aggregation of human platelets preincubated with PBS, as control (black bar); […] (100 nM; white bar); apelin (10 nM; grey bar) or […] (100 nM) plus apelin (10 nM) (dashed bar). Venous blood was collected from healthy donors on 10% (v/v) trisodium citrate (3.8%). Written informed consent was obtained from all the donors. Platelet-rich plasma (PRP) was obtained by centrifugation (120 g; 15 minutes; 20° C.) and platelets were isolated by differential centrifugation as previously described^15. The platelet pellet was resuspended in modified Tyrode-HEPES buffer without CaCl2 (137 mM NaCl, 2 mM KCl, 0.3 mM NaH2PO4, 5.5 mM glucose, 5 mM Hepes, 12 mM NaHCO3, pH 7.3). Platelet aggregation was monitored by measuring light transmission through the stirred suspension of washed platelets (3×10^8/mL) at 37° C. in presence of 1 mM CaCl2 using a Chronolog aggregometer (Chrono-log Corporation, USA). When mentioned, platelets were first incubated with apelin-13, apelin-36, apelin-DM or […] for 3 minutes at 37° C. Platelet aggregation was triggered by adding collagen, thrombin, or ADP. Representative traces for aggregation were obtained from at least three independent experiments. Results are expressed as the percent change in light transmission with respect to the blank (buffer without platelets), set at 100%.

A further assay concerns wild-type mice. The assay can be described thus: Tail bleeding time after intravenous injection. The assay is classed as in vivo, mouse. The settings on record: for tail bleeding time: peptide alone; for effect on the apelin-induced increase in bleeding time: peptide together with apelin. An excerpt: FIG. 7: APJ antagonist […]) and unprocessed double mutant apelin-36 (apelin-DM) confirm the role of APJ in the inhibition of platelet function by apelin. Tail bleeding time in wild-type mice receiving an intravenous injection of PBS, as control (●); […] (500 nmol/kg; ▪); apelin (50 nmol/kg; ◯) or […] (500 nmol/kg) plus apelin (50 nmol/kg) (□). FIG. 8: APJ antagonist […]) and unprocessed double mutant apelin-36 (apelin-DM) confirm the role of APJ in the inhibition of platelet function by apelin. Tail bleeding time in wild-type mice receiving an intravenous injection of PBS, as control (●); apelin (50 nmol/kg; ◯); apelin-36 (500 nmol/kg; Δ); apelin-DM (500 nmol/kg; ▪), apelin-36 plus apelin (▾) or apelin-DM plus apelin (□). Complete blood counts and haematocrit were determined with an automatic cell counter, using the standard parameters for mice. Bleeding time assays were performed on overnight fasted animals, after injection of PBS, apelin-13, apelin-36, apelin-DM or […] into the retro-orbital plexus, by cutting off the tip of the tail (3 mm from the tip) and immediately immersing it in saline at 37° C. We then recorded the time taken for the bleeding to stop.

Assay [3] relates to HUVEC. As to the kind of experiment: HUVEC proliferation induced by VEGF (Cell Titer96 assay). In kind it is cell-based, human. The procedure: FIG. 9: HUVEC proliferation and motility. HUVEC were serum deprived overnight and then treated for 24 h with or without VEGF in the presence of apelin wild-type (10 ng/ml) and/or apelin mut-36 (10 ng/ml). Cell proliferation was assessed using Cell Titer96 non-radioactive cell proliferation assay.

The test system of the next assay is mouse aortic ring. The assay can be described thus: Mouse aortic ring assay.
The subject of assay [4] is chick chorioallantoic membrane. As to the kind of experiment: Chick chorioallantoic membrane (CAM) assay. The assay is classed as in vivo.
Assay [5] is described as follows: Cutaneous reverse passive Arthus reactions assay. In kind it is in vivo.
Assay [6] deals with HUVEC. The assay can be described thus: Endothelial cell migration (motility) induced by VEGF. In kind it is cell-based, human.
A further assay deals with proApelin processing. As to the kind of experiment: proApelin processing in transfected cells with PC inhibitors (immunoblot). The assay is classed as cell-based, human. The settings on record: cell transfection experiments, coexpression with apelin. An excerpt:
FIG. 2: Human apelin cDNA encodes a protein of 77 amino acid residues. Newly synthesized apelin is a preproprotein that is proteolytically processed in order to generate mature 36, 17 and 13 amino acid forms. We cloned human apelin into pIRES2-eGFP vector adding a V5 tag in C-terminus of the apelin sequence. […] To identify the PCs involved in apelin processing, apelin and each of the PCs were transiently co-expressed in LoVo cells, a furin-deficient cell line. Supernatants were collected 24 hours after transfection and analyzed for proapelin processing by immunoblotting using a V5 antibody. As illustrated in (a), analyses of media derived from LoVo cells cotransfected with vector encoding proapelin and control vector show a band with an apparent molecular mass of 8-9 kDa, corresponding to the intact apelin precursor. […] FIG. 3: […]
On the technique in general: In western blotting, separated proteins are transferred to a membrane and probed.

Consider “Apelin-36: proApelin (Apelin-36), 36 amino acid cleavage product of preproapelin (LVQPRGSRNGPGPWQGGRRKFRRQRPRLSHKGPMPF; listed as Homo sapiens)”, for which the “thrombin-induced Ca2+ mobilisation” value with human platelets [1] is recorded as “inhibited”. The thrombin-induced platelet aggregation result with human platelets [2] is “inhibited”. Besides, the tail bleeding time result with wild-type mice is recorded as “significant increase in bleeding time”.

Turning to “F13A: APJ receptor antagonist apelin-13 (F13A)”, in the assay on human platelets [1], the “thrombin-induced Ca2+ mobilisation” value is listed as “no effects” and the “effect on the apelin inhibitory effect on thrombin-induced Ca2+ mobilisation” value was “prevents the inhibitory effects of apelin alone; also recorded: abolished the apelin inhibitory effect”. Besides, in the assay on human platelets [2], the thrombin-induced platelet aggregation entry is reported as “no effects” and the “effect on the apelin inhibitory effect on thrombin-induced aggregation” value is reported as “prevents the inhibitory effects of apelin alone; also recorded: abolished the apelin inhibitory effect”. Moreover, in the assay with wild-type mice, the tail bleeding time result is reported as “no effects” and the “effect on the apelin-induced increase in bleeding time” value was “prevents the inhibitory effects of apelin alone; also recorded: inhibited”.

On to “LVQPRGSRNGPGPWQGGSSKFSSQRPRLSHKGPMPF (Synthetic inhibitor of apelin) [Apelin-DM, unprocessed mutant of apelin; cleavage sites of proapelin (18RRKFRR) replaced by 18SSKFSS]”, for which the “endothelial cell proliferation induced by VEGF” value in the assay with HUVEC [3] is listed as “inhibits”. Further, the “formation of new vessels (neo-vascularisation)” value (in the assay on mouse aortic ring; in assay [4]) was “prevents the neo-vascularisation” throughout. Besides, in the assay with human platelets [1], the “effect on the apelin inhibitory effect on thrombin-induced Ca2+ mobilisation” value is given as “abolished the apelin inhibitory effect”. Also, in assay [5], the tissue inflammation entry is on record as “inhibited these processes”. Besides, the “effect on the apelin inhibitory effect on thrombin-induced aggregation” value in the assay on human platelets [2] is recorded as “abolished the apelin inhibitory effect”. In the assay on HUVEC [6], the “endothelial cell migration induced by VEGF” value is on record as “inhibits”. Besides, the “effect on the apelin-induced increase in bleeding time” value in the assay with wild-type mice is listed as “inhibited”.

For “alpha1-PDX: Furin inhibitor serpin alpha1-antitrypsin, furin-motif variant of α1-antitrypsin”, in the assay on proApelin processing, the “processing of proApelin” value is reported as “inhibited”.

apelin: the tissue inflammation entry in assay [5] is listed as “increased tissue inflammation”.

apelin-13: the “formation of new vessels (neo-vascularisation)” value (in the assay on mouse aortic ring; in [4]) was “induced the formation of new vessels” throughout. The “thrombin-induced Ca2+ mobilisation” value in the assay with human platelets [1] is given as “inhibited”. In the assay with human platelets [2], the thrombin-induced platelet aggregation entry is “inhibited”. For the same substance, the tail bleeding time entry in the assay with wild-type mice is on record as “significant increase in bleeding time”.

“ppFurin: Furin inhibitor, prosegment proFurin”: in the assay with proApelin processing, the “processing of proApelin” value was “inhibited”.

ppPC5: PC inhibitor, prosegment proPC5: in the assay with proApelin processing, the “processing of proApelin” value is reported as “inhibited”.

Values taken from patent publication US9593153B2, “Modified apelin polypeptides” (INSERM (INSTITUT NATIONAL DE LA SANTE ET DE LA RECHERCHE …, priority 2012, dated 2017).
